Reference: article PMC4491418, “Characterisation of Dermanyssus gallinae glutathione S-transferases and their potential as acaricide detoxification proteins” (Parasites & Vectors, 2015)

Assays:
Type in all cases: biochemical
rDeg-GST-3 [1] = target: T1, rDeg-GST-3 (Dermanyssus gallinae, UniProt A0A0H4FPP8); assay: GSH-CDNB conjugation, A340nm; conditions: 0-1 mM CDNB, 2 mM GSH, pH 6.5
T1 construct: full-length CDS (669 bp ORF, 222 aa) in pETSUMO; N-terminal His-tag and SUMO fusion kept; E. coli BL21-CodonPlus(DE3)-RIL; HisTrap purified
T1 sequence (A0A0H4FPP8 1-222): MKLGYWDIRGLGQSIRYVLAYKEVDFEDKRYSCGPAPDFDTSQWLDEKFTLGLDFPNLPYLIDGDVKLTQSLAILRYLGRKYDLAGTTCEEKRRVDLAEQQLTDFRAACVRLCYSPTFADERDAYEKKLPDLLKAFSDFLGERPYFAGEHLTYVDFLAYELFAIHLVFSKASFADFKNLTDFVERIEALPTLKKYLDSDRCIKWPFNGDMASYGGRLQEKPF

rDeg-GST-2 [2] = target: T2, rDeg-GST-2 (Dermanyssus gallinae, UniProt A0A0H4FKJ9); assay: GSH-CDNB conjugation, A340nm; conditions: 0-1 mM CDNB, 2 mM GSH, pH 6.5
T2 construct: full-length CDS (633 bp ORF, 210 aa) in pETSUMO; N-terminal His-tag and SUMO fusion kept; E. coli BL21-CodonPlus(DE3)-RIL; HisTrap purified
T2 sequence (A0A0H4FKJ9 1-210): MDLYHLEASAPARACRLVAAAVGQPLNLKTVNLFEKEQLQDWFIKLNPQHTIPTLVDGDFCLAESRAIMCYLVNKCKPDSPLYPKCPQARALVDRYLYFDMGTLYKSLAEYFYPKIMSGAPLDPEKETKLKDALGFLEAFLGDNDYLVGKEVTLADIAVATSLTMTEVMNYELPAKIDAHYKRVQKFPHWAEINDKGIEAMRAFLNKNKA

rDeg-GST-1 [3] = target: T3, rDeg-GST-1 (Dermanyssus gallinae, UniProt A0A0H4FNI7); assay: GSH-CDNB conjugation, A340nm; conditions: 0-1 mM CDNB, 2 mM GSH, pH 6.5
T3 construct: full-length CDS (735 bp ORF, 244 aa) in pETSUMO; N-terminal His-tag and SUMO fusion kept; E. coli BL21-CodonPlus(DE3)-RIL; HisTrap purified
T3 sequence (A0A0H4FNI7 1-244): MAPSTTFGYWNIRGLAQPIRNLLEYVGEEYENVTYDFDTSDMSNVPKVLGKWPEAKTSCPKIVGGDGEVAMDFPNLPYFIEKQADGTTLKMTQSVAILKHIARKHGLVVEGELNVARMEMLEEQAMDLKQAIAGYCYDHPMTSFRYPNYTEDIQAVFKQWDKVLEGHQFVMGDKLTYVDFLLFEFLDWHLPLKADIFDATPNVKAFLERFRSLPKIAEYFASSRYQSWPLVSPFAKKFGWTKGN

rDeg-GST-1 [4] = target: T3, rDeg-GST-1; assay: inhibition of GSH-CDNB conjugation, A340nm; conditions: 100 µM; 1 mM CDNB, 2 mM GSH, pH 6.5 substrate buffer; 10 min preincubation at RT; mode not determined
From the text: inhibition of GSH-CDNB conjugation, A340nm on rDeg-GST-1

rDeg-GST-2 [5] = target: T2, rDeg-GST-2; assay: inhibition of GSH-CDNB conjugation, A340nm; conditions: 100 µM; 1 mM CDNB, 2 mM GSH, pH 6.5 substrate buffer; 10 min preincubation at RT; mode not determined
From the text: inhibition of GSH-CDNB conjugation, A340nm on rDeg-GST-2

rDeg-GST-3 [6] = target: T1, rDeg-GST-3; assay: inhibition of GSH-CDNB conjugation, A340nm; conditions: 100 µM; 1 mM CDNB, 2 mM GSH, pH 6.5 substrate buffer; 10 min preincubation at RT; mode not determined
From the text: inhibition of GSH-CDNB conjugation, A340nm on rDeg-GST-3

SMILES: O=[N+]([O-])c1ccc(Cl)c([N+](=O)[O-])c1 [1-chloro-2,4-dinitrobenzene]
- GSH-CDNB conjugation, A340nm (rDeg-GST-3 [1]): All three rDeg-GSTs were enzymically-active molecules capable of catalyzing the conjugation of GSH to CDNB
- GSH-CDNB conjugation, A340nm (rDeg-GST-2 [2]): All three rDeg-GSTs were enzymically-active molecules capable of catalyzing the conjugation of GSH to CDNB
- GSH-CDNB conjugation, A340nm (rDeg-GST-1 [3]): All three rDeg-GSTs were enzymically-active molecules capable of catalyzing the conjugation of GSH to CDNB

SMILES: CC1(C)C(C=C(Cl)Cl)C1C(=O)OCc1cccc(Oc2ccccc2)c1 (stereo not shown) [Permethrin]
- % reduction in Deg-GST activity ± SEM / rDeg-GST-1 (0.3 μg GST/well) (rDeg-GST-1 [4]): 35.39 ± 0.9%

SMILES: CCOP(=S)(OCC)ON=C(C#N)c1ccccc1 [Phoxim]
- % reduction in Deg-GST activity ± SEM / rDeg-GST-1 (0.3 μg GST/well) (rDeg-GST-1 [4]): 56.38 ± 3.0%
- % reduction in Deg-GST activity ± SEM / rDeg-GST-2 (1.5 μg GST/well) (rDeg-GST-2 [5]): 14.8 ± 1.5%
- % reduction in Deg-GST activity ± SEM / rDeg-GST-3 (1.5 μg GST/well) (rDeg-GST-3 [6]): 20.56 ± 2.5%
